In ChEMBL document CHEMBL5136982, “Structure-Based Design of Potent, Selective, and Orally Bioavailable VPS34 Kinase Inhibitors” (J Med Chem, 2022):

Tests used:
[1] = Microsomal stability in human liver microsome assessed as clearance at 1.0 uM preincubated for 5 mins followed by NADPH addition measured upto 60 mins by LC-MS/MS analysis; type: ADME; conditions: liver microsomes, time < 65 min
[2] = Microsomal stability in rat liver microsome assessed as clearance at 1.0 uM preincubated for 5 mins followed by NADPH addition measured upto 60 mins by LC-MS/MS analysis; type: ADME; conditions: liver microsomes, time < 65 min
[3] = Oral bioavailability in Sprague-Dawley rat at 2 mg/kg measured upto 8 hrs by LC-MS/MS analysis; type: ADME, organism-based; conditions: in vivo
[4] = Lipophilicity, logD of compound at pH 7.4 by shake flask method; type: physicochemical; conditions: buffer
[5] = Unbound clearance in Sprague-Dawley rat at 0.5 mg/kg, iv measured upto 8 hrs by LC-MS/MS analysis; type: ADME, organism-based; conditions: in vivo
[6] = AUC in Sprague-Dawley rat at 0.5 mg/kg, iv measured upto 8 hrs by LC-MS/MS analysis; type: ADME, organism-based; parameters: dose 0.5 mg/kg, time < 8 hrs, route iv; conditions: in vivo
[7] = Plasma clearance in Sprague-Dawley rat at 0.5 mg/kg, iv measured upto 8 hrs by LC-MS/MS analysis; type: ADME, organism-based
[8] = Half life in Sprague-Dawley rat at 2 mg/kg, po measured upto 8 hrs by LC-MS/MS analysis; type: ADME, organism-based; conditions: in vivo
[9] = Volume of distribution at steady state in Sprague-Dawley rat at […] measured upto 8 hrs by LC-MS/MS analysis; type: ADME, organism-based; conditions: in vivo

CLhep predicted at 1 µM [1] [mL/min/kg]	CLhep predicted at 1 µM [2] [mL/min/kg]	bioavailability [3] [%]	logD [4]	CL free [5] [mL/min/kg]	AUC at 8 h [6] [µM·h]	clearance [7] [mL/min/kg]	half-life [8] [h]	Vdss [9] [L/kg]	Compound
< 3.9	< 6.1	–	–	–	–	–	–	–	C[C@@H]1COCCN1c1cc2n(n1)C(C(C)(C)O)CNC2=O (single isomer, unassigned)
< 3.9	12	68	1.2	19	–	–	–	–	CC(C)[C@@H]1CNC(=O)c2cc(N3CCOC[C@H]3C)nn21
< 3.9	< 6.1	–	1.7	–	–	–	–	–	C[C@@H]1CNC(=O)c2cc(-c3ccnc(NC(=O)C4CC4)c3)nn21
5	15	–	1.8	–	–	–	–	–	NC(=O)c1ccccc1Nc1ccnc(NC(=O)C2CC2)c1
4.7	24	–	1.4	–	–	–	–	–	C[C@@H]1COCCN1c1cc2n(n1)[C@H](C(C)(C)C)CNC2=O
6.4	< 6.1	–	1.3	–	–	–	–	–	Cn1ccc(-c2ccnc(NC(=O)C3CC3)c2)cc1=O
< 3.9	< 6.1	61	1	–	4	7.8	1.4	0.83	C[C@@H]1COCCN1c1cc2n(n1)[C@@H]1CCC[C@@H]1NC2=O
< 3.9	8.5	–	0.8	–	–	–	–	–	C[C@@H]1COCCN1c1cc2n(n1)[C@H](C(F)(F)F)CNC2=O
< 3.9	< 6.1	–	1.5	–	–	–	–	–	C[C@@H]1COCCN1c1cc2n(n1)[C@H](C1CC1)C(C)(C)NC2=O
< 3.9	11	–	1.6	–	–	–	–	–	C[C@@H]1COCCN1c1cc2n(n1)[C@H](C1CC1)C1(CC1)NC2=O
< 3.9	22	–	2.4	–	–	–	–	–	CC(C)[C@@H]1CNC(=O)c2cc(-c3ccnc(NC(=O)C4CC4)c3)nn21
17	40	–	2.1	–	–	–	–	–	O=C(Nc1cc(-c2ccn3ccnc3c2)ccn1)C1CC1
19	34	–	2.8	–	–	–	–	–	O=C(Nc1cc(-n2cnc3ccccc32)ccn1)C1CC1
< 3.9	< 6.1	–	0.7	–	–	–	–	–	CC(C)[C@@H]1CNC(=O)c2cc(N3CCOCC3)nn21
< 3.9	23	–	1.5	–	–	–	–	–	C[C@@H]1COCCN1c1cc2n(n1)[C@H](C1CCC1)CNC2=O
< 3.9	7.8	–	1.3	–	–	–	–	–	C[C@@H]1NC(=O)c2cc(N3CCOC[C@H]3C)nn2[C@@H]1C1CC1
< 3.9	< 6.1	–	1.1	–	–	–	–	–	C[C@@H]1COCCN1c1cc2n(n1)C[C@H](C(F)(F)F)NC2=O
12	7.2	–	3.1	–	–	–	–	–	O=C(Nc1cc2cc(-c3nncn3-c3ccccc3Cl)ccc2cn1)C1CC1F (configuration not stated)
< 3.9	11	–	1	–	–	–	–	–	C[C@@H]1COCCN1c1cc2n(n1)[C@H](C1CC1)CNC2=O
11	25	–	2.5	–	–	–	–	–	Cc1cnc(NC(=O)C2CC2)cc1-c1cc2n(n1)[C@H](C(C)C)CNC2=O
9.1	28	–	1.6	–	–	–	–	–	C[C@@H]1COCCN1c1cc2n(n1)[C@H](C1CCCC1)CNC2=O
< 3.9	< 6.1	–	1.7	–	–	–	–	–	C[C@@H]1COCCN1c1cc2n(n1)[C@H](C1CC1)[C@H](C1CC1)NC2=O
